According to ChEMBL document CHEMBL4038261, “Synthetic strategy with representation on mechanistic pathway for the therapeutic applications of dihydroquinazolinones” (Eur J Med Chem, 2016):

Experiments:
[1] = test system: Mycobacterium tuberculosis H37Rv; assay: Inhibition of Mycobacterium tuberculosis H37Rv Chorismate mutase at 30 uM relative to control
Plasmodium berghei = assay: Antimalarial activity against liver stage of Plasmodium berghei ANKA harboring luciferase gene infected in human HepG2 cells pretreated for 1 hr followed by parasite infection measured after […] by Bright-Glo luminescence assay; type: functional, cell-based
[2] = Inhibition of Mycobacterium tuberculosis H37Rv Chorismate mutase

Compound | inhibition [1] [%] | other results
O=C1NC2(Cc3ccccc3C2)Nc2ccc(I)cc21 | 30 to 35 | –
O=C1NC2(CCCCCC2)Nc2ccccc21 | 30 to 35 | –
CCN(CC)CCN1C(=O)c2ccccc2NC1c1ccc(Cl)cc1 (centres undefined) | – | EC50 (Plasmodium berghei): 1.4 µM
COc1cc(CCNc2c([N+](=O)[O-])cc(C(=O)O)cc2S(N)(=O)=O)cc(OC)c1 | – | IC50 [2]: < 10 µM
